Assay [1] addresses EGFR (human) (UniProt P00533). Particulars: for IC50: ht-29; for inhibition: ht-29, concentration not given here.
The target of assay [2] is EGFR (human) (UniProt P00533). Particulars: sk-br-3.
Assay [3] addresses EGFR (human) (UniProt P00533). Particulars: sw 620.
The target in assay [4] is EGFR (human) (UniProt P00533). Particulars: a431.
Assay [5] has as its target EGFR (human) (UniProt P00533). Particulars: mda-mb-435.

The record followed here is the Kinase Knowledgebase extract (Sharma et al. 2016).

Values after ≈ are worked out from the molar mass of the structure shown.

What is called IC50 is the concentration that inhibits the measured activity by half. The term inhibition denotes the relative decrease from the control value, in per cent. High values mean a strong effect, low ones a weak effect.

Chain of EGFR (human) (P00533 whole entry, looked up): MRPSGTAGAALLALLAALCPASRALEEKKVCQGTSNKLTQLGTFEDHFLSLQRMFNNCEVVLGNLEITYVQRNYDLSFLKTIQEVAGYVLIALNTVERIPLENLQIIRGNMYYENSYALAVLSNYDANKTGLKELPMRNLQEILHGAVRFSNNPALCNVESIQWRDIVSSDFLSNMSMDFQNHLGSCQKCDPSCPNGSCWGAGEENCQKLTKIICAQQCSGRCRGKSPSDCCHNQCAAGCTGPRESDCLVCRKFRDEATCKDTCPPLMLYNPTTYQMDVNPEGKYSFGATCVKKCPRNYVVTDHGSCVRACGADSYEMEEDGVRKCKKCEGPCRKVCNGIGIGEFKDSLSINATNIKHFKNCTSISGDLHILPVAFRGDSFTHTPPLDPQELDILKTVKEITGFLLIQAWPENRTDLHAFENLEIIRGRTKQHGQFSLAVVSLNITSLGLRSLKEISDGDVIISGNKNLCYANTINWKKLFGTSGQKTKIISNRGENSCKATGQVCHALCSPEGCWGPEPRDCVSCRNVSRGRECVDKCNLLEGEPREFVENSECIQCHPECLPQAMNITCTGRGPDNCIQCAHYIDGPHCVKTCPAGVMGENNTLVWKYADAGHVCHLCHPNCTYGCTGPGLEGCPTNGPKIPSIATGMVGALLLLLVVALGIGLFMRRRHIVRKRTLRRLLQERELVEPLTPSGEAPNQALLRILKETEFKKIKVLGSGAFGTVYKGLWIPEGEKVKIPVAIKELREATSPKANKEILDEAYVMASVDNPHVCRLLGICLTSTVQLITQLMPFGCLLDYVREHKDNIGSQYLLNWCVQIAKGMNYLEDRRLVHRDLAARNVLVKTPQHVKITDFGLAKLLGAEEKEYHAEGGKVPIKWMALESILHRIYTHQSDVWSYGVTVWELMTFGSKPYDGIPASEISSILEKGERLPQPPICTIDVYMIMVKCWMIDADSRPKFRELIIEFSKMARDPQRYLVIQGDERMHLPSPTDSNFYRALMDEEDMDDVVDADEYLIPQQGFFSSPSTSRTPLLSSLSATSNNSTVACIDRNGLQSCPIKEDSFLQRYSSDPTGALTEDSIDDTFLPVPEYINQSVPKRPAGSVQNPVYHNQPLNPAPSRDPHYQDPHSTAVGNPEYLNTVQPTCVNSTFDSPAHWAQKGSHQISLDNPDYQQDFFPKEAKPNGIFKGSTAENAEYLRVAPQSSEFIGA

For `COc1cc(Nc2c(C#N)cnc3cc4cc(OCCN5CCOCC5)c(OC)cc4cc23)c(C)cc1Cl`, in assay [1], the 50% inhibitory concentration (IC50) is over 10 µM.

Turning to `COc1cc(Nc2c(C#N)cnc3cc4nc[nH]c4cc23)c(Br)cc1Cl`, the inhibition in assay [1] stood at 35%.

Regarding `N#Cc1cnc2cc3ccccc3cc2c1Nc1ccc(F)c(Cl)c1`, the concentration for half-maximal inhibition (IC50) turned out to be 1.01 µg/mL (≈ 2.9 µM) in assay [2], 1.08 µg/mL (≈ 3.11 µM) in assay [3], 0.332 µg/mL (≈ 0.955 µM) in assay [4] and 1.65 µg/mL (≈ 4.74 µM) in assay [5].

`COc1cc2cc3ncc(C#N)c(Nc4ccc(F)c(Cl)c4)c3cc2cc1OCCN1CCOCC1`: the half-maximal inhibitory concentration (IC50) in assay [2] was 0.04 µg/mL (≈ 0.0789 µM); in assay [3], 0.36 µg/mL (≈ 0.71 µM); in assay [4] it was 0.76 µg/mL (≈ 1.5 µM).

Turning to `N#Cc1cnc2c(sc3ccc([N+](=O)[O-])cc32)c1Nc1ccc(Cl)cc1Cl`, the IC50 was found to be 0.59 µg/mL (≈ 1.42 µM) in assay [2], 0.67 µg/mL (≈ 1.61 µM) in assay [3], 0.41 µg/mL (≈ 0.987 µM) in assay [4] and 0.46 µg/mL (≈ 1.11 µM) in assay [5].

`COc1ccc(Cl)c(Nc2c(C#N)cnc3cc4nc[nH]c4cc23)c1`: the inhibition in assay [1] was 10%.

As to `N#Cc1cnc2cc3nc[nH]c3cc2c1Nc1ccc(Cl)cc1Br`, the inhibition in assay [1] stood at 25%.

With `C=CC(=O)Nc1ccc2sc3c(Nc4cccc(Br)c4)c(C#N)cnc3c2c1`, the IC50 in assay [2] came to 0.224 µg/mL (≈ 0.499 µM); in assay [3], 1 µg/mL (≈ 2.23 µM); in assay [4] it was 0.838 µg/mL (≈ 1.86 µM); in assay [5] it was 1.69 µg/mL (≈ 3.76 µM).

Take `N#Cc1cnc2c(sc3ccccc32)c1Nc1cccc(Br)c1`: the IC50 in assay [2], in assay [3], in assay [4] and in assay [5] was over 5 µg/mL in each case.

For the compound `N#Cc1cnc2cc3cc(O)c(O)cc3cc2c1Nc1ccc(Cl)cc1Cl`, the IC50 in assay [2] was over 5 µg/mL; in assay [3] it was 0.38 µg/mL (≈ 0.959 µM); in assay [4], 0.58 µg/mL (≈ 1.46 µM); in assay [5] it was 0.85 µg/mL (≈ 2.15 µM).

In turn, `COc1cc(Nc2c(C#N)cnc3cc4cc(OCCN5CCOCC5)c(OC)cc4cc23)c(Cl)cc1C` gave an IC50 in assay [1] of 9.95 µM.

Compound `CCOc1cc2cc3c(Nc4cc(OC)c(Cl)cc4C)c(C#N)cnc3cc2cc1OCCN1CCOCC1` gave a concentration for half-maximal inhibition (IC50) in assay [1] of over 10 µM.

For `N#Cc1cnc2c(oc3ccccc32)c1Nc1cccc(Br)c1`, the half-maximal inhibitory concentration (IC50) in assay [2], in assay [3], in assay [4] and in assay [5] was over 5 µg/mL in each case.

In the case of `COc1cc2cc3c(Nc4ccc(OCc5ccccc5)c(Cl)c4)c(C#N)cnc3cc2cc1OCCN1CCOCC1`, the half-maximal inhibitory concentration (IC50) in assay [2] was determined as 3.5 µg/mL (≈ 5.88 µM); in assay [3], 11.6 µg/mL (≈ 19.5 µM); in assay [4] it was 4.7 µg/mL (≈ 7.9 µM); in assay [5], 33.5 µg/mL (≈ 56.3 µM).

As to `COc1cc(Nc2c(C#N)cnc3cc4cc(OCCN5CCN(C)CC5)c(OC)cc4cc23)c(C)cc1Cl`, in assay [1], the IC50 turned out to be 8.6 µM.

For `N#Cc1cnc2cc3nc[nH]c3cc2c1Nc1cccc(Br)c1`, the IC50 came to 0.6 µg/mL (≈ 1.65 µM) in assay [2], 3.72 µg/mL (≈ 10.2 µM) in assay [3], 0.58 µg/mL (≈ 1.59 µM) in assay [4] and 3.48 µg/mL (≈ 9.56 µM) in assay [5].

The compound `COc1cc(Nc2c(C#N)cnc3cc4nc[nH]c4cc23)cc(OC)c1OC` had an inhibition in assay [1] of 0%.

As for `N#Cc1cnc2c(sc3ccc(N)cc32)c1Nc1cccc(Br)c1`, the half-maximal inhibitory concentration (IC50) in assay [2], in assay [3], in assay [4] and in assay [5] was over 5 µg/mL in each case.

Take `C=CC(=O)Nc1cccc2c1sc1c(Nc3cccc(Br)c3)c(C#N)cnc12`: the half-inhibitory concentration (IC50) in assay [2] is 1.09 µg/mL (≈ 2.43 µM); in assay [3], over 5 µg/mL; in assay [4] it was 1.11 µg/mL (≈ 2.47 µM); in assay [5], 3.9 µg/mL (≈ 8.68 µM).
